The values that follow come from patent US5502035A, “N-terminus modified analogs of LHRH” (Tap Holdings Inc., priority 1994, dated 1996).

For this experiment, the target named is T1, LHRH (Rattus norvegicus, UniProt P30969).
T1 construct: endogenous in cells; host or cells: rat pituitary cells (own knowledge of the cited Haviv 1989 method)
T1 sequence (P30969 1-327): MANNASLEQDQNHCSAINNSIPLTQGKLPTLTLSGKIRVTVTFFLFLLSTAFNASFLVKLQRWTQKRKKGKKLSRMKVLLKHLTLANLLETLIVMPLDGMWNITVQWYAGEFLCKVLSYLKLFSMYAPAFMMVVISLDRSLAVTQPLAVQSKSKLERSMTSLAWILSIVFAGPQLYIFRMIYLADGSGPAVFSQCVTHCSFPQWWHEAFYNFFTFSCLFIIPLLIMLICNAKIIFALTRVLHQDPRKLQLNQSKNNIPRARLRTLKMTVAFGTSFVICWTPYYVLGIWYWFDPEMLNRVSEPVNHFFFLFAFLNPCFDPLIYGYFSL
Description: in vitro test for LHRH antagonist potency (pA2). The experiment is classed as cell-based. Conditions: negative logarithm of the antagonist concentration required to shift the response curve produced by the agonist leuprolide to two-fold higher concentration. Put shortly: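 Rat LHRH receptor in vitro functional test; pA2 = negative log of the antagonist concentration shifting the leuprolide agonist response curve to two-fold higher concentration.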

Non-standard residues stand in square brackets, D forms with d. Residues, ends and D or L forms follow the SMILES beside them. Groups on a side chain read outwards from the residue. *: point of attachment. Shikimoyl = O=C(C1=C[C@@H](O)[C@@H](O)[C@H](O)C1)*; X4 = O=C([C@@H](O)[C@@H](O)[C@H](O)[C@@H](O)CO)*; dPhe(4-Cl) = N[C@H](Cc1ccc(Cl)cc1)C(=O)O; d1Nal = N[C@H](Cc1cccc2ccccc12)C(=O)O; d2Nal = N[C@H](Cc1ccc2ccccc2c1)C(=O)O; NMeY = CN[C@@H](Cc1ccc(O)cc1)C(=O)O; NMeF = CN[C@@H](Cc1ccccc1)C(=O)O; d3Pal = N[C@H](Cc1cccnc1)C(=O)O; NMeL = CN[C@@H](CC(C)C)C(=O)O; Nicotinoyl = O=C(c1cccnc1)*; Aze = O=C(O)[C@@H]1CCN1

With `CC(C)C[C@H](NC(=O)[C@@H](CCCCNC(=O)c1cccnc1)NC(=O)[C@H](Cc1ccc(O)cc1)N(C)C(=O)[C@H](CO)NC(=O)[C@@H](Cc1cccnc1)NC(=O)[C@@H](Cc1ccc(Cl)cc1)NC(=O)[C@@H](Cc1ccc2ccccc2c1)NC(=O)CNC(=O)C1=C[C@@H](O)[C@@H](O)[C@H](O)C1)C(=O)N[C@@H](CCCNC(=N)N)C(=O)N1CCC[C@H]1C(=O)N[C@H](C)C(N)=O` [Example 15a, N-Shikimyl-Gly-D2Nal-D4ClPhe-D3Pal-Ser-NMeTyr-DLys(Nic)-Leu-Arg-Pro-DAlaNH2] (Shikimoyl-G[d2Nal][dPhe(4-Cl)][d3Pal]S[NMeY][dK](Nicotinoyl)LRP[dA]-NH2), the Kb is 0.0631 nM. Turning to `CC(C)C[C@H](NC(=O)[C@@H](CCCCNC(=O)CNC(=O)c1cccnc1)NC(=O)[C@H](Cc1ccc(O)cc1)N(C)C(=O)[C@H](CO)NC(=O)[C@@H](Cc1cccnc1)NC(=O)[C@@H](Cc1ccc(Cl)cc1)NC(=O)[C@@H](Cc1ccc2ccccc2c1)NC(=O)CNC(=O)C1=C[C@@H](O)[C@@H](O)[C@H](O)C1)C(=O)N[C@@H](CCCNC(=N)N)C(=O)N1CCC[C@H]1C(=O)N[C@H](C)C(N)=O` [Example 15b, N-Shikimyl-Gly-D2Nal-D4ClPhe-D3Pal-Ser-NMeTyr-DLys(Gly-Nic)-Leu-Arg-Pro-DAlaNH2] (Shikimoyl-G[d2Nal][dPhe(4-Cl)][d3Pal]S[NMeY][dK]([Gly-Nicotinoyl])LRP[dA]-NH2), the Kb is 0.0209 nM. To `CC(C)C[C@H](NC(=O)[C@@H](CCCCNC(=O)[C@@H](CO)NC(=O)c1cccnc1)NC(=O)[C@H](Cc1ccc(O)cc1)N(C)C(=O)[C@H](CO)NC(=O)[C@@H](Cc1cccnc1)NC(=O)[C@@H](Cc1ccc(Cl)cc1)NC(=O)[C@@H](Cc1ccc2ccccc2c1)NC(=O)CNC(=O)C1=C[C@@H](O)[C@@H](O)[C@H](O)C1)C(=O)N[C@@H](CCCNC(=N)N)C(=O)N1CCC[C@H]1C(=O)N[C@H](C)C(N)=O` [Example 15c, N-Shikimyl-Gly-D2Nal-D4ClPhe-D3Pal-Ser-NMeTyr-DLys(DSer-Nic)-Leu-Arg-Pro-DAlaNH2] (Shikimoyl-G[d2Nal][dPhe(4-Cl)][d3Pal]S[NMeY][dK]([dS-Nicotinoyl])LRP[dA]-NH2) belongs 0.01 nM; to `CC(C)C[C@H](NC(=O)[C@@H](CCCCNC(=O)CNC(=O)C1=C[C@@H](O)[C@@H](O)[C@H](O)C1)NC(=O)[C@H](Cc1ccc(O)cc1)N(C)C(=O)[C@H](CO)NC(=O)[C@@H](Cc1cccnc1)NC(=O)[C@@H](Cc1ccc(Cl)cc1)NC(=O)[C@@H](Cc1ccc2ccccc2c1)NC(=O)CNC(=O)C1=C[C@@H](O)[C@@H](O)[C@H](O)C1)C(=O)N[C@@H](CCCNC(=N)N)C(=O)N1CCC[C@H]1C(=O)N[C@H](C)C(N)=O` [Example 15d, N-Shikimyl-Gly-D2Nal-D4ClPhe-D3Pal-Ser-NMeTyr-DLys(Gly-Shik)-Leu-Arg-Pro-DAlaNH2] (Shikimoyl-G[d2Nal][dPhe(4-Cl)][d3Pal]S[NMeY][dK]([Gly-Shikimoyl])LRP[dA]-NH2), 0.0178 nM. As for `CC(C)C[C@H](NC(=O)[C@@H](CCCCNC(=O)C1=C[C@@H](O)[C@@H](O)[C@H](O)C1)NC(=O)[C@H](Cc1ccc(O)cc1)N(C)C(=O)[C@H](CO)NC(=O)[C@@H](Cc1cccc2ccccc12)NC(=O)[C@@H](Cc1ccc(Cl)cc1)NC(=O)[C@@H](Cc1ccc2ccccc2c1)NC(=O)CNC(=O)C1=C[C@@H](O)[C@@H](O)[C@H](O)C1)C(=O)N[C@@H](CCCNC(=N)N)C(=O)N1CCC[C@H]1C(=O)N[C@H](C)C(N)=O` [Example 16, N-Shikimyl-Gly-D2Nal-D4ClPhe-D 1Nal-Ser-NMeTyr-DLys(Shik)-Leu-Arg-Pro-DAlaNH2] (Shikimoyl-G[d2Nal][dPhe(4-Cl)][d1Nal]S[NMeY][dK](Shikimoyl)LRP[dA]-NH2), the antagonist equilibrium constant (Kb) was 0.0288 nM. To `CC(C)C[C@H](NC(=O)[C@@H](CCCCNC(=O)C1=C[C@@H](O)[C@@H](O)[C@H](O)C1)NC(=O)[C@H](Cc1ccccc1)N(C)C(=O)[C@H](CO)NC(=O)[C@@H](Cc1cccnc1)NC(=O)[C@@H](Cc1ccc(Cl)cc1)NC(=O)[C@@H](Cc1ccc2ccccc2c1)NC(=O)CNC(=O)C1=C[C@@H](O)[C@@H](O)[C@H](O)C1)C(=O)N[C@@H](CCCNC(=N)N)C(=O)N1CCC[C@H]1C(=O)N[C@H](C)C(N)=O` [Example 17, N-Shikimyl-Gly-D2Nal-D4ClPhe-D3Pal-Ser-NMePhe-DLys(Shik)-Leu-Arg-Pro-DAlaNH2] (Shikimoyl-G[d2Nal][dPhe(4-Cl)][d3Pal]S[NMeF][dK](Shikimoyl)LRP[dA]-NH2) belongs 0.0112 nM; to `CC[C@H](C)[C@H](NC(=O)[C@@H](CCCCNC(=O)C1=C[C@@H](O)[C@@H](O)[C@H](O)C1)NC(=O)[C@H](Cc1ccc(O)cc1)N(C)C(=O)[C@H](CO)NC(=O)[C@@H](Cc1cccnc1)NC(=O)[C@@H](Cc1ccc(Cl)cc1)NC(=O)[C@@H](Cc1ccc2ccccc2c1)NC(=O)CNC(=O)C1=C[C@@H](O)[C@@H](O)[C@H](O)C1)C(=O)N[C@@H](CCCNC(=N)N)C(=O)N1CCC[C@H]1C(=O)N[C@H](C)C(N)=O` [Example 18a, N-Shikimyl-Gly-D2Nal-D4ClPhe-D3Pal-Ser-NMeTyr-DLys(Shik)-Ile-Arg-Pro-DAlaNH2] (Shikimoyl-G[d2Nal][dPhe(4-Cl)][d3Pal]S[NMeY][dK](Shikimoyl)IRP[dA]-NH2), 0.0166 nM. To `CC(C)C[C@@H](C(=O)N[C@@H](CCCNC(=N)N)C(=O)N1CCC[C@H]1C(=O)N[C@H](C)C(N)=O)N(C)C(=O)[C@@H](CCCCNC(=O)C1=C[C@@H](O)[C@@H](O)[C@H](O)C1)NC(=O)[C@H](Cc1ccc(O)cc1)N(C)C(=O)[C@H](CO)NC(=O)[C@@H](Cc1cccnc1)NC(=O)[C@@H](Cc1ccc(Cl)cc1)NC(=O)[C@@H](Cc1ccc2ccccc2c1)NC(=O)CNC(=O)C1=C[C@@H](O)[C@@H](O)[C@H](O)C1` [Example 18b, N-Shikimyl-Gly-D2Nal-D4ClPhe-D3Pal-Ser-NMeTyr-DLys(Shik)-NMeLeu-Arg-Pro-DAlaNH2] (Shikimoyl-G[d2Nal][dPhe(4-Cl)][d3Pal]S[NMeY][dK](Shikimoyl)[NMeL]RP[dA]-NH2) belongs 0.00912 nM; to `CC(C)C[C@H](NC(=O)[C@@H](CCCCNC(=O)C1=C[C@@H](O)[C@@H](O)[C@H](O)C1)NC(=O)[C@H](Cc1ccc(O)cc1)N(C)C(=O)[C@H](CO)NC(=O)[C@@H](Cc1cccnc1)NC(=O)[C@@H](Cc1ccc(Cl)cc1)NC(=O)[C@@H](Cc1ccc2ccccc2c1)NC(=O)CNC(=O)C1=C[C@@H](O)[C@@H](O)[C@H](O)C1)C(=O)N[C@@H](CCCNC(=N)N)C(=O)N1CC[C@H]1C(=O)N[C@H](C)C(N)=O` [Example 19, N-Shikimyl-Gly-D2Nal-D4ClPhe-D3Pal-Ser-NMeTyr-DLys(Shik)-Leu-Arg-Aze-DAlaNH2] (Shikimoyl-G[d2Nal][dPhe(4-Cl)][d3Pal]S[NMeY][dK](Shikimoyl)LR[Aze][dA]-NH2), 0.0407 nM.

For `CC(C)C[C@H](NC(=O)[C@@H](CCCCNC(=O)CNC(=O)CNC(=O)c1cccnc1)NC(=O)[C@H](Cc1ccc(O)cc1)N(C)C(=O)[C@H](CO)NC(=O)[C@@H](Cc1cccnc1)NC(=O)[C@@H](Cc1ccc(Cl)cc1)NC(=O)[C@@H](Cc1ccc2ccccc2c1)NC(=O)CNC(=O)C1=C[C@@H](O)[C@@H](O)[C@H](O)C1)C(=O)N[C@@H](CCCNC(=N)N)C(=O)N1CCC[C@H]1C(=O)N[C@H](C)C(N)=O` [Example 20, N-Shikimyl-Gly-D2Nal-D4ClPhe-D3Pal-Ser-NMeTyr-DLys(GlyGlyNic)-Leu-Arg-Pro-DAlaNH2] (Shikimoyl-G[d2Nal][dPhe(4-Cl)][d3Pal]S[NMeY][dK]([Gly-Gly-Nicotinoyl])LRP[dA]-NH2), the Kb was 0.0263 nM. With `CC(C)C[C@H](NC(=O)[C@@H](CCCCNC(=O)CNC(=O)[C@@H](O)[C@@H](O)[C@H](O)[C@@H](O)CO)NC(=O)[C@H](Cc1ccc(O)cc1)N(C)C(=O)[C@H](CO)NC(=O)[C@@H](Cc1cccnc1)NC(=O)[C@@H](Cc1ccc(Cl)cc1)NC(=O)[C@@H](Cc1ccc2ccccc2c1)NC(=O)CNC(=O)[C@@H](O)[C@@H](O)[C@H](O)[C@@H](O)CO)C(=O)N[C@@H](CCCNC(=N)N)C(=O)N1CCC[C@H]1C(=O)N[C@H](C)C(N)=O` [Example 21, N-(L-Gulonyl)-Gly-D2Nal-D4ClPhe-D3Pal-Ser-NMeTyr-DLys(Gly-L-Gulonyl)-Leu-Arg-Pro-DAlaNH2] (X4-G[d2Nal][dPhe(4-Cl)][d3Pal]S[NMeY][dK]([Gly-X4])LRP[dA]-NH2), the Kb was 0.0316 nM. Turning to `CC(C)C[C@H](NC(=O)[C@@H](CCCCNC(=O)CNC(=O)C1=C[C@@H](O)[C@@H](O)[C@H](O)C1)NC(=O)[C@H](Cc1ccc(O)cc1)N(C)C(=O)[C@H](CO)NC(=O)[C@@H](Cc1cccnc1)NC(=O)[C@@H](Cc1ccc(Cl)cc1)NC(=O)[C@@H](Cc1ccc2ccccc2c1)NC(=O)CNC(=O)c1cccnc1)C(=O)N[C@@H](CCCNC(=N)N)C(=O)N1CCC[C@H]1C(=O)N[C@H](C)C(N)=O` [Example 22, N-Nicotinyl-Gly-D2Nal-D4ClPhe-D3Pal-Ser-NMeTyr-DLys(Gly-Shik)-Leu-Arg-Pro-DAlaNH2] (Nicotinoyl-G[d2Nal][dPhe(4-Cl)][d3Pal]S[NMeY][dK]([Gly-Shikimoyl])LRP[dA]-NH2), the Kb was 0.00339 nM.

On to `CC[C@H](C)[C@H](NC(=O)[C@@H](CCCCNC(=O)C1=C[C@@H](O)[C@@H](O)[C@H](O)C1)NC(=O)[C@H](Cc1ccc(O)cc1)N(C)C(=O)[C@H](CO)NC(=O)[C@@H](Cc1cccnc1)NC(=O)[C@@H](Cc1ccc(Cl)cc1)NC(=O)[C@@H](Cc1ccc2ccccc2c1)NC(=O)CNC(=O)c1cccnc1)C(=O)N[C@@H](CCCNC(=N)N)C(=O)N1CCC[C@H]1C(=O)N[C@H](C)C(N)=O` [Example 23a, N-Nicotinyl-Gly-D2Nal-D4ClPhe-D3Pal-Ser-NMeTyr-DLys(Shik)-Ile-Arg-Pro-DAlaNH2] (Nicotinoyl-G[d2Nal][dPhe(4-Cl)][d3Pal]S[NMeY][dK](Shikimoyl)IRP[dA]-NH2), for which the Kb is 0.0195 nM.
